# Data: publication PMC2667962 (Biochemistry, 2008)
# Experiments:
# [1] = Formation of anhydrous cholesterol crystals seen by DSC
# [2] = DSC of the phase transition of pure SOPC with peptide; conditions: cooling scans, SOPC without peptide 5 °C
Substance,formation of cholesterol crystals ([1]; 6/4 ratio of SOPC/cholesterol),formation of cholesterol crystals ([1]; mixtures with 30% cholesterol),transition temperature of pure SOPC ([2]; 5 mol% peptide) [°C],transition temperature of pure SOPC ([2]; 10 mol% peptide) [°C],transition temperature of pure SOPC ([2]; 15 mol% peptide) [°C],formation of anhydrous cholesterol crystals ([1]; any of the SOPC/cholesterol ratios)
"Ac-GWGIK-NH2 [GWGIK, N-acetyl-GWGIK-amide]",no formation of cholesterol crystals,small peak corresponding to cholesterol crystals,,,,
LWGIG,,,4.7,4.7,4.5,no formation of anhydrous cholesterol crystals
